Data taken from patent US9708312B2, “Dihydropyrimidinoisoquinolinones and pharmaceutical compositions thereof for the treatment of inflammatory disorders (GPR84 antagonists)” (GALAPAGOS NV, priority 2012, dated 2017).

target: T1, GPR84 (Homo sapiens, UniProt Q9NQS5); experiment: GPR84 [35S]GTPγS binding assay, HEPES buffer; type: biochemical; settings: 3,3′ di indolylmethane at EC80, membranes from stable cell line over expressing GPR84
T1 construct: expressed in transfected cells
Protocol: 1.1. Cell Based Assay: GTp-γ S Binding Assay.
The following assay can be used for determination of GPR84 activation.
The assay is performed in a 96 well plate where the following reagents are added. […] In a last step, 30 μL of a mixture consisting of membranes-GTPγS-SpA beads is added [mixture consists of 20 μg/well membranes derived from stable cell line over expressing GPR84 (membranes are pre-incubated with 0.1 μM GDP for 15 min at 4° C.), 0.1 nM [^35S]GTPγS (Perkin Elmer, NEG030) and 0.5 mg/well PVT-WGA SpA beads (Perkin Elmer, RPNQ0001)]. All components are diluted in assay buffer containing 20 mM HEPES pH 7.4; 5 mM MgCl2; 250 mM NaCl; 0.05% BSA; 75 ug/mL saponin Reactions are incubated for 90 min at room temperature followed by centrifugation at 2000 rpm during 15 min. Plates are read on a Topcount reader (Perkin Elmer) immediately after centrifugation (readout time, 1 min/well).

T1 sequence (Q9NQS5 whole entry): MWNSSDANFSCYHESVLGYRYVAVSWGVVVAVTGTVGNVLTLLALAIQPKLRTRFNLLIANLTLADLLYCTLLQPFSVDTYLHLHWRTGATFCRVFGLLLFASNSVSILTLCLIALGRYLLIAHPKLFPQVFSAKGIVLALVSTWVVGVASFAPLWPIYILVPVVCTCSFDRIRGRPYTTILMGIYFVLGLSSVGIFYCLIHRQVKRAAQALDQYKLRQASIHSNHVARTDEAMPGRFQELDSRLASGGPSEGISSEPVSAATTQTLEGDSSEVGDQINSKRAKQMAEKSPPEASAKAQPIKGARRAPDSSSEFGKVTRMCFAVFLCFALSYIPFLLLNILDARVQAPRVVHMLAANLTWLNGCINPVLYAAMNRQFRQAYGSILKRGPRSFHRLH

| Structure (SMILES) | IC50 [nM] |
| --- | --- |
| CN1CCCC1CCOc1ccc2c(c1)CCn1c-2cc(OCC2COc3ncccc3O2)nc1=O (stereo not shown) [compound 92, 2-(2,3-dihydro-[1,4]dioxino[2,3-b]pyridin-2-ylmethoxy)-9-[2-(1-methyl-pyrrolidin-2-yl)-ethoxy]-6,7-dihydro-pyrimido[6,1-a]isoquinolin-4-one] | 100 to 500 |
| O=c1nc(OCC2CCCO2)cc2n1CCc1cc(-c3cccnc3)ccc1-2 (stereo not shown) [compound 94, 9-pyridin-3-yl-2-(tetrahydro-furan-2-ylmethoxy)-6,7-dihydro-pyrimido[6,1-a]isoquinolin-4-one] | 500 to 1000 |
| N#Cc1cccc(-c2ccc3c(c2)CCn2c-3cc(OCC3CCCO3)nc2=O)c1 (stereo not shown) [compound 95, 3-[4-Oxo-2-(tetrahydro-furan-2-ylmethoxy)-6,7-dihydro-4H-pyrimido[6,1-a]isoquinolin-9-yl]-benzonitrile] | 100 to 500 |
| O=c1nc(OCC2CCCO2)cc2n1CCc1cc(-c3ccccc3)ccc1-2 (stereo not shown) [compound 96, 9-phenyl-2-(tetrahydro-furan-2-ylmethoxy)-6,7-dihydro-pyrimido[6,1-a]isoquinolin-4-one] | 100 to 500 |
| O=c1nc(OCC2COc3ncccc3O2)cc2n1CCc1cc(-c3ccncc3)ccc1-2 (stereo not shown) [compound 97, 2-(2,3-dihydro-[1,4]dioxino[2,3-b]pyridin-2-ylmethoxy)-9-pyridin-4-yl-6,7-dihydro-pyrimido[6,1-a]isoquinolin-4-one] | 0.01 to 100 |
| N#Cc1cccc(-c2ccc3c(c2)CCn2c-3cc(OCC3COc4ncccc4O3)nc2=O)c1 (stereo not shown) [compound 98, 3-[2-(2,3-dihydro-[1,4]dioxino[2,3-b]pyridin-2-ylmethoxy)-4-oxo-6,7-dihydro-4H-pyrimido[6,1-a]isoquinolin-9-yl]-benzonitrile] | 0.01 to 100 |
| COc1ccccc1-c1ccc2c(c1)CCn1c-2cc(OCC2CCCO2)nc1=O (stereo not shown) [compound 99, 9-(2-methoxy-phenyl)-2-(tetrahydro-furan-2-ylmethoxy)-6,7-dihydro-pyrimido[6,1-a]isoquinolin-4-one] | 100 to 500 |
| COc1cccc(-c2ccc3c(c2)CCn2c-3cc(OCC3CCCO3)nc2=O)c1 (stereo not shown) [compound 100, 9-(3-methoxy-phenyl)-2-(tetrahydro-furan-2-ylmethoxy)-6,7-dihydro-pyrimido[6,1-a]isoquinolin-4-one] | 100 to 500 |
| COc1ccc(-c2ccc3c(c2)CCn2c-3cc(OCC3CCCO3)nc2=O)cc1 (stereo not shown) [compound 101, 9-(4-methoxy-phenyl)-2-(tetrahydro-furan-2-ylmethoxy)-6,7-dihydro-pyrimido[6,1-a]isoquinolin-4-one] | 100 to 500 |
| O=C(O)c1cccc(-c2ccc3c(c2)CCn2c-3cc(OCC3CCCO3)nc2=O)c1 (stereo not shown) [compound 103, 3-[4-oxo-2-(tetrahydro-furan-2-ylmethoxy)-6,7-dihydro-4H-pyrimido[6,1-a]isoquinolin-9-yl]-benzoic acid] | 500 to 1000 |
| CN(C)c1ccc(-c2ccc3c(c2)CCn2c-3cc(OCC3CCCO3)nc2=O)cc1 (stereo not shown) [compound 105, 9-(4-dimethylamino-phenyl)-2-(tetrahydro-furan-2-ylmethoxy)-6,7-dihydro-pyrimido[6,1-a]isoquinolin-4-one] | 100 to 500 |
| NC(=O)c1ccc(-c2ccc3c(c2)CCn2c-3cc(OCC3CCCO3)nc2=O)cc1 (stereo not shown) [compound 106, 4-[4-oxo-2-(tetrahydro-furan-2-ylmethoxy)-6,7-dihydro-4H-pyrimido[6,1-a]isoquinolin-9-yl]-benzamide] | 100 to 500 |
| N#Cc1ccccc1-c1ccc2c(c1)CCn1c-2cc(OCC2CCCO2)nc1=O (stereo not shown) [compound 107, 2-[4-oxo-2-(tetrahydro-furan-2-ylmethoxy)-6,7-dihydro-4H-pyrimido[6,1-a]isoquinolin-9-yl]-benzonitrile] | 500 to 1000 |
| COc1cncc(-c2ccc3c(c2)CCn2c-3cc(OCC3COc4ncccc4O3)nc2=O)c1 (stereo not shown) [compound 140, 2-(2,3-dihydro-[1,4]dioxino[2,3-b]pyridin-2-ylmethoxy)-9-(5-methoxy-pyridin-3-yl)-6,7-dihydro-pyrimido[6,1-a]isoquinolin-4-one] | 0.01 to 100 |
| O=c1nc(OCC2COc3ncccc3O2)cc2n1CCc1cc(C#CC3CC3)ccc1-2 (stereo not shown) [compound 141, 9-cyclopropylethynyl-2-(2,3-dihydro-[1,4]dioxino[2,3-b]pyridin-2-ylmethoxy)-6,7-dihydro-pyrimido[6,1-a]isoquinolin-4-one] | 0.01 to 100 |
| COc1ncccc1-c1ccc2c(c1)CCn1c-2cc(OCC2COc3ncccc3O2)nc1=O (stereo not shown) [compound 145, 2-(2,3-dihydro-[1,4]dioxino[2,3-b]pyridin-2-ylmethoxy)-9-(2-methoxy-pyridin-3-yl)-6,7-dihydro-pyrimido[6,1-a]isoquinolin-4-one] | 0.01 to 100 |

| Structure (SMILES) | IC50 [nM] |
| --- | --- |
| O=c1nc(OCC2COc3ncccc3O2)cc2n1CCc1ccccc1-2 (stereo not shown) [compound 146, 2-(2,3-dihydro-[1,4]dioxino[2,3-b]pyridin-2-ylmethoxy)-6,7-dihydro-pyrimido[6,1-a]isoquinolin-4-one] | 0.01 to 100 |
| CNC(=O)c1ccc(-c2ccc3c(c2)CCn2c-3cc(OCC3COc4ncccc4O3)nc2=O)cn1 (stereo not shown) [compound 147, 5-[2-(2,3-dihydro-[1,4]dioxino[2,3-b]pyridin-2-ylmethoxy)-4-oxo-6,7-dihydro-4H-pyrimido[6,1-a]isoquinolin-9-yl]-pyridine-2-carboxylic acid methylamide] | 0.01 to 100 |
| O=c1nc(OCC2COc3ncccc3O2)cc2n1CCc1cc(-c3ccoc3)ccc1-2 (stereo not shown) [compound 148, 2-(2,3-dihydro-[1,4]dioxino[2,3-b]pyridin-2-ylmethoxy)-9-furan-3-yl-6,7-dihydro-pyrimido[6,1-a]isoquinolin-4-one] | 0.01 to 100 |
| Cn1cc(-c2ccc3c(c2)CCn2c-3cc(OCC3COc4ncccc4O3)nc2=O)cn1 (stereo not shown) [compound 149, 2-(2,3-dihydro-[1,4]dioxino[2,3-b]pyridin-2-ylmethoxy)-9-(1-methyl-1H-pyrazol-4-yl)-6,7-dihydro-pyrimido[6,1-a]isoquinolin-4-one] | 0.01 to 100 |
| O=c1nc(OCC2COc3ncccc3O2)cc2n1CCc1cc(CN3CCOCC3)ccc1-2 (stereo not shown) [compound 150, 2-(2,3-dihydro-[1,4]dioxino[2,3-b]pyridin-2-ylmethoxy)-9-morpholin-4-ylmethyl-6,7-dihydro-pyrimido[6,1-a]isoquinolin-4-one] | 0.01 to 100 |
| N#CCNc1ccc2c(c1)CCn1c-2cc(OCC2COc3ncccc3O2)nc1=O (stereo not shown) [compound 151, [2-(2,3-dihydro-[1,4]dioxino[2,3-b]pyridin-2-ylmethoxy)-4-oxo-6,7-dihydro-4H-pyrimido[6,1-a]isoquinolin-9-ylamino]-acetonitrile] | 100 to 500 |
| N#Cc1ccc2c(c1)CCn1c-2cc(OCC2COc3ncccc3O2)nc1=O (stereo not shown) [compound 152, 2-(2,3-dihydro-[1,4]dioxino[2,3-b]pyridin-2-ylmethoxy)-4-oxo-6,7-dihydro-4H-pyrimido[6,1-a]isoquinoline-9-carbonitrile] | 100 to 500 |
| O=c1nc(OCC2COc3ncccc3O2)cc2n1CCc1cc(NCc3ncco3)ccc1-2 (stereo not shown) [compound 153, 2-(2,3-dihydro-[1,4]dioxino[2,3-b]pyridin-2-ylmethoxy)-9-[(oxazol-2-ylmethyl)-amino]-6,7-dihydro-pyrimido[6,1-a]isoquinolin-4-one] | 0.01 to 100 |
| Cc1nc(COc2ccc3c(c2)CCn2c-3cc(OCC3COc4ncccc4O3)nc2=O)no1 (stereo not shown) [compound 154, 2-(2,3-dihydro-[1,4]dioxino[2,3-b]pyridin-2-ylmethoxy)-9-(5-methyl-[1,2,4]oxadiazol-3-ylmethoxy)-6,7-dihydro-pyrimido[6,1-a]isoquinolin-4-one] | 0.01 to 100 |
| CCc1nc(COc2ccc3c(c2)CCn2c-3cc(OCC3COc4ncccc4O3)nc2=O)no1 (stereo not shown) [compound 155, 2-(2,3-dihydro-[1,4]dioxino[2,3-b]pyridin-2-ylmethoxy)-9-(5-ethyl-[1,2,4]oxadiazol-3-ylmethoxy)-6,7-dihydro-pyrimido[6,1-a]isoquinolin-4-one] | 0.01 to 100 |
| O=c1nc(OCC2COc3ncccc3O2)cc2n1CCc1cc(OCc3noc(C4CC4)n3)ccc1-2 (stereo not shown) [compound 156, 9-(5-cyclopropyl-[1,2,4]oxadiazol-3-ylmethoxy)-2-(2,3-dihydro-[1,4]dioxino[2,3-b]pyridin-2-ylmethoxy)-6,7-dihydro-pyrimido[6,1-a]isoquinolin-4-one] | 0.01 to 100 |
| CC(C)c1nc(COc2ccc3c(c2)CCn2c-3cc(OCC3COc4ncccc4O3)nc2=O)no1 (stereo not shown) [compound 157, 2-(2,3-dihydro-[1,4]dioxino[2,3-b]pyridin-2-ylmethoxy)-9-(5-isopropyl-[1,2,4]oxadiazol-3-ylmethoxy)-6,7-dihydro-pyrimido[6,1-a]isoquinolin-4-one] | 0.01 to 100 |
| CC(C)(C)c1nc(COc2ccc3c(c2)CCn2c-3cc(OCC3COc4ncccc4O3)nc2=O)no1 (stereo not shown) [compound 158, 9-(5-tert-Butyl-[1,2,4]oxadiazol-3-ylmethoxy)-2-(2,3-dihydro-[1,4]dioxino[2,3-b]pyridin-2-ylmethoxy)-6,7-dihydro-pyrimido[6,1-a]isoquinolin-4-one] | 0.01 to 100 |
| Cc1cc(COc2ccc3c(c2)CCn2c-3cc(OCC3COc4ncccc4O3)nc2=O)on1 (stereo not shown) [compound 159, 2-(2,3-dihydro-[1,4]dioxino[2,3-b]pyridin-2-ylmethoxy)-9-(3-methyl-isoxazol-5-ylmethoxy)-6,7-dihydro-pyrimido[6,1-a]isoquinolin-4-one] | 0.01 to 100 |
| COc1nccc(-c2ccc3c(c2)CCn2c-3cc(OCC3COc4ncccc4O3)nc2=O)c1Cl (stereo not shown) [compound 160, 9-(3-chloro-2-methoxy-pyridin-4-yl)-2-(2,3-dihydro-[1,4]dioxino[2,3-b]pyridin-2-ylmethoxy)-6,7-dihydro-pyrimido[6,1-a]isoquinolin-4-one] | 0.01 to 100 |
